Laboratory results published in ChEMBL document CHEMBL1201862, “PubChem BioAssay data set” (2004).
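Grown in 96-well plates, cells were treated for 48 hours with each compound at five concentrations. Insufficient inhibition: endpoint recorded as highest concentration tested. GI50 = concentration required for 50% inhibition of growth.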 Active and inactive are the calls of the source. No stated cut-off is given here; in the data, active = GI50 up to about 1.1 µM and inactive = higher.

Legend:
Experiment in all cases: NCI anticancer screen, dose series, 48 h
M19-MEL = system: M19-MEL
DMS-114 = system: DMS-114
DLD-1 = system: DLD-1
LXFL 529 = system: LXFL 529
HOP-18 = system: HOP-18
RXF 631 = system: RXF 631
SNB-78 = system: SNB-78
XF498 = system: XF498
BT-549 = system: BT-549

N#CC(C#N)=C1NN=C(Cl)c2ccccc21
GI50 (M19-MEL): > 100 µM (inactive) | GI50 (DMS-114): > 100 µM (inactive) | GI50 (DLD-1): > 100 µM (inactive) | GI50 (LXFL 529): 65 µM (inactive) | GI50 (HOP-18): 37.3 µM (inactive) | GI50 (RXF 631): 80.5 µM (inactive)

Clc1ccc(/C=C/c2csnn2)cc1
GI50 (M19-MEL): > 100 µM (inactive) | GI50 (DMS-114): > 100 µM (inactive) | GI50 (SNB-78): > 100 µM (inactive) | GI50 (XF498): > 100 µM (inactive) | GI50 (DLD-1): > 100 µM (inactive) | GI50 (LXFL 529): > 100 µM (inactive) | GI50 (HOP-18): > 100 µM (inactive)

COc1ccc(CNc2nc(NC3CCCCC3)nc(NC3CCCCC3)n2)cc1
GI50 (BT-549): 8.53 µM (inactive)

Cc1cccc2nc3cccc(C(=O)NCCC[N+](C)(CCCNC(=O)c4cccc5nc6cccc(C)c6nc45)Cc4ccc([N+](=O)[O-])n4C)c3nc12
GI50 (BT-549): > 100 µM (inactive)

CC(=O)OCC12C(OC(C)=O)C[C@@H](C)C3(CC(c4ccoc4)OC3=O)C1CCC(OC(C)=O)C21CO1 (stereo not given in full)
GI50 (BT-549): > 100 µM (inactive)

Cc1cc2c(=O)cc(-c3ccc(C(=O)O)cc3)oc2c(C(N)=O)c1C
GI50 (M19-MEL): > 100 µM (inactive) | GI50 (DMS-114): > 100 µM (inactive) | GI50 (SNB-78): > 100 µM (inactive) | GI50 (DLD-1): > 100 µM (inactive) | GI50 (LXFL 529): > 100 µM (inactive) | GI50 (RXF 631): > 100 µM (inactive)

Cc1ccc(O)c(Cc2nc3ccccc3nc2-c2cccc(Cl)c2)c1
GI50 (BT-549): > 100 µM (inactive)

COC(=O)C1CC(OC(C)=O)C=C2C(=O)CCC21 (stereo not given)
GI50 (M19-MEL): 22.4 µM (inactive) | GI50 (DMS-114): 15 µM (inactive) | GI50 (SNB-78): 24.1 µM (inactive) | GI50 (DLD-1): 14.5 µM (inactive) | GI50 (LXFL 529): 15.5 µM (inactive) | GI50 (HOP-18): 20.5 µM (inactive) | GI50 (RXF 631): 27.5 µM (inactive)

C=C(Cl)C(Cl)(CBr)CCC(Cl)C(C)(C)Cl (stereo not given)
GI50 (BT-549): 5.47 µM (inactive)

CN(C)CCNC(=O)c1cc([N+](=O)[O-])ccn1
GI50 (BT-549): 84.5 µM (inactive)

CC(C)(C)OC(=O)NCCCCCCC(=O)Cc1ccccc1
GI50 (BT-549): > 100 µM (inactive)

CC1C(c2ccccc2)OP(=O)(OC(C#N)c2ccccc2)N1C (stereo not given)
GI50 (BT-549): > 100 µM (inactive)

O=C(c1ccccc1)N1CCC(Nc2nccs2)O1 (stereo not given)
GI50 (BT-549): > 10 µM (inactive)

C[n+]1c2ccccc2c(CNc2ccc(S(=O)(=O)N=C(N)N)cc2)c2ccccc21
GI50 (M19-MEL): 14.5 µM (inactive) | GI50 (DMS-114): 2.65 µM (inactive) | GI50 (SNB-78): 19.9 µM (inactive) | GI50 (DLD-1): 17.3 µM (inactive)

CC(C)=CC(=O)O[C@@H]1CC(C)(C)CC2C3=CCC4[C@]56CC[C@](O)(OC5)C(C)(C)C6CC[C@@]4(C)C3(C)CC[C@]21C(=O)O (stereo not given in full)
GI50 (BT-549): > 100 µM (inactive)

COC1=CC(C)C2C[C@H]3O[C@H](O)C[C@H]4C(C)C(=O)C(O)C([C@@]2(C)C1=O)[C@@]34C (stereo not given in full)
GI50 (M19-MEL): > 100 µM (inactive) | GI50 (DMS-114): > 100 µM (inactive) | GI50 (SNB-78): > 100 µM (inactive) | GI50 (DLD-1): > 100 µM (inactive) | GI50 (LXFL 529): > 100 µM (inactive) | GI50 (HOP-18): > 100 µM (inactive)

Nc1ccn(C=C=CCO)c(=O)n1
GI50 (BT-549): > 100 µM (inactive)

CC(=O)OCC(OC(C)=O)C(OC(C)=O)C(OC(C)=O)C(/C=N\Nc1nc2ccccc2c(=O)[nH]1)=N/Nc1nc2ccccc2c(=O)[nH]1 (stereo not given)
GI50 (BT-549): > 100 µM (inactive)

COc1ccc2c3ccc4c(c3n(C)c2c1)C(=O)c1ccccc1C4=O
GI50 (M19-MEL): > 100 µM (inactive) | GI50 (DMS-114): > 100 µM (inactive) | GI50 (SNB-78): > 100 µM (inactive) | GI50 (DLD-1): > 100 µM (inactive) | GI50 (LXFL 529): 78 µM (inactive) | GI50 (HOP-18): > 100 µM (inactive)

OCC(O)C(O)C(O)c1nnn[nH]1 (stereo not given)
GI50 (M19-MEL): > 100 µM (inactive) | GI50 (DMS-114): > 100 µM (inactive) | GI50 (SNB-78): > 100 µM (inactive) | GI50 (DLD-1): > 100 µM (inactive) | GI50 (LXFL 529): > 100 µM (inactive)

COc1cc(/C=C(\C#N)C(=O)c2ccccc2)cc(OC)c1OC
GI50 (M19-MEL): > 100 µM (inactive) | GI50 (DMS-114): > 100 µM (inactive) | GI50 (SNB-78): > 100 µM (inactive) | GI50 (DLD-1): > 100 µM (inactive) | GI50 (LXFL 529): > 100 µM (inactive) | GI50 (HOP-18): > 100 µM (inactive)

C(=C\c1cccc(/C=C/c2ccccn2)n1)/c1ccccn1
GI50 (BT-549): 18.7 µM (inactive)

COC(=O)CN1C(=O)C2(C(=O)OC)OC1(c1ccc([N+](=O)[O-])cc1)C1C(=O)N(c3ccccc3)C(=O)C12 (stereo not given)
GI50 (BT-549): > 100 µM (inactive)

CN1OC2OC(=O)OC2[C@H]1[C@H]1O[C@H](c2ccccc2)OC1(C)c1cc(OC(=O)c2ccccc2)ccc1OC(=O)c1ccccc1 (stereo not given in full)
GI50 (M19-MEL): > 50 µM (inactive) | GI50 (DMS-114): > 50 µM (inactive) | GI50 (SNB-78): > 50 µM (inactive) | GI50 (XF498): > 50 µM (inactive) | GI50 (DLD-1): > 50 µM (inactive) | GI50 (LXFL 529): > 50 µM (inactive) | GI50 (RXF 631): > 50 µM (inactive)

N=C(N)NCCCC(NC(=O)OCCCCn1ccc(N)nc1=O)C(=O)O (stereo not given)
GI50 (BT-549): > 100 µM (inactive)

CC(=O)OC1COC(n2nc(/C=C/c3ccc(Cl)cc3)c(=O)n(/N=C/c3ccccc3)c2=S)C(OC(C)=O)C1OC(C)=O (stereo not given)
GI50 (BT-549): > 100 µM (inactive)

COc1ccc(N2/C(=N/c3ccccc3)SC(=N/S(=O)(=O)c3ccccc3)/C2=N\S(=O)(=O)c2ccccc2)cc1
GI50 (BT-549): 24.3 µM (inactive)

CN(C)c1ccc(/C=C/C(=O)c2ccccc2)cc1Br
GI50 (M19-MEL): 18.7 µM (inactive) | GI50 (DMS-114): 17.3 µM (inactive) | GI50 (XF498): 16.3 µM (inactive) | GI50 (DLD-1): 18.9 µM (inactive) | GI50 (LXFL 529): 15.1 µM (inactive)

N#CC(NC12CC3CC(CC(C3)C1)C2)c1ccccc1 (stereo not given)
GI50 (BT-549): > 100 µM (inactive)

COc1cccc2c(Nc3ccc(S(=O)(=O)NC(C)=O)cc3)c3ccc([N+](=O)[O-])cc3nc12
GI50 (BT-549): 26.3 µM (inactive)

Cn1c(CCC#N)nc2ccc(Br)cc2c1=O
GI50 (DMS-114): > 100 µM (inactive) | GI50 (XF498): > 100 µM (inactive) | GI50 (DLD-1): > 100 µM (inactive) | GI50 (LXFL 529): > 100 µM (inactive) | GI50 (RXF 631): > 100 µM (inactive)

CN1CCN(c2ncc3c(n2)sc2c(=O)n(-c4ccccc4)cnc23)CC1
GI50 (BT-549): > 100 µM (inactive)
